According to PMC3582500 (PLoS ONE, 2013):

What was measured:
[1] = target: T1, Laconic (LldR from Escherichia coli between mTFP and Venus) (Escherichia coli, UniProt P0ACL7); assay: FRET ratio mTFP/Venus, purified sensor; format: binding; settings: 1 mM citrate without lactate; intracellular buffer pH 7.0
T1 construct: variant 04
T1 sequence (P0ACL7 1-258): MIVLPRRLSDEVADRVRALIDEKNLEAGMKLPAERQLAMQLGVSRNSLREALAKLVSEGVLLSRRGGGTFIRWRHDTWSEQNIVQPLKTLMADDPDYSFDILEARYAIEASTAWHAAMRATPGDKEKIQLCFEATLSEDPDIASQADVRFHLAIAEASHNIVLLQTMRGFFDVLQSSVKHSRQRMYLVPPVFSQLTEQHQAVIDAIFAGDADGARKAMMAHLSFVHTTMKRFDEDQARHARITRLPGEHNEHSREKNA

[2] = target: T1, Laconic (LldR from Escherichia coli between mTFP and Venus); assay: FRET ratio mTFP/Venus, purified sensor; format: binding; settings: 0.25, 1 or 10 mM pyruvate with lactate dose-response; effect by interference with lactate; intracellular buffer pH 7.0

| SMILES | % increase of FRET ratio at 1 mM [1] | FRET ratio mTFP/Venus, purified sensor [2] |
| --- | --- | --- |
| O=C(O)CC(O)(CC(=O)O)C(=O)O [citrate] | 6% |  |
| CC(=O)C(=O)O [pyruvate] |  | at high concentrations, pyruvate blocked the effect of low lactate |
